Measurements from ChEMBL document CHEMBL1201862, “PubChem BioAssay data set” (2004).
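Interpolation was linear, between the two tested concentrations surrounding the appropriate level; five concentrations were tested over 48 hours in 96-well plates. Abbreviation: GI50, concentration required for 50% inhibition of growth.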 Active and inactive are the calls of the source. Rule as the data show it: active = GI50 up to about 1.1 µM and inactive = higher.

What was measured:
Experiment in all cases: growth of human tumour cells (NCI), 48 h
786-0 = system: 786-0
K562 = system: K562
OVCAR-3 = system: OVCAR-3
SK-MEL-28 = system: SK-MEL-28
HCC 2998 = system: HCC 2998
SF-295 = system: SF-295
SK-OV-3 = system: SK-OV-3
RPMI-8226 = system: RPMI-8226
SF-268 = system: SF-268
HT-29 = system: HT-29
COLO 205 = system: COLO 205
NCI-H23 = system: NCI-H23
HOP-92 = system: HOP-92
UACC-257 = system: UACC-257
UACC-62 = system: UACC-62
HOP-62 = system: HOP-62
ACHN = system: ACHN
SR = system: SR

Measured: GI50

Nc1ncnc2c1ncn2CC(O)CO (stereo not drawn)
inactive: 786-0 > 100 µM | K562 > 100 µM | OVCAR-3 > 100 µM | SK-MEL-28 > 100 µM | HCC 2998 86.7 µM | SF-295 > 100 µM | SK-OV-3 > 100 µM | RPMI-8226 > 100 µM | SF-268 > 100 µM | HT-29 > 100 µM | COLO 205 > 100 µM | NCI-H23 > 100 µM | HOP-92 > 100 µM | UACC-257 > 100 µM | UACC-62 > 100 µM

COc1cc(C(C)c2cc3c(cc2OCCCCOc2cc4c(cc2C(C)c2cc(OC)c(OC)c(OC)c2)OCO4)OCO3)cc(OC)c1OC (stereo not drawn)
inactive: 786-0 49.2 µM | K562 28.2 µM | HOP-62 37.4 µM | OVCAR-3 21.7 µM | SK-MEL-28 71 µM | HCC 2998 29.5 µM | SF-295 26.5 µM | SK-OV-3 34.4 µM | RPMI-8226 25.5 µM | SF-268 51.5 µM | ACHN 69.5 µM | HT-29 68.9 µM | COLO 205 > 100 µM | SR 10.2 µM | NCI-H23 40.4 µM | UACC-257 84.7 µM | UACC-62 21.1 µM

C1=CC=C2NCCOCC/N=C3/C=CC=CC=C3NCCOCC/N=C\2C=C1
inactive: 786-0 > 100 µM | K562 31.4 µM | HOP-62 > 100 µM | OVCAR-3 > 100 µM | SK-MEL-28 86.5 µM | HCC 2998 67.1 µM | SF-295 52 µM | SK-OV-3 > 100 µM | RPMI-8226 45.7 µM | SF-268 > 100 µM | ACHN > 100 µM | HT-29 15.7 µM | COLO 205 45 µM | NCI-H23 > 100 µM | UACC-257 20 µM | UACC-62 47.9 µM

CN(C)C(=C1C(Br)=C(Br)C(Br)=C1Br)N(C)C
inactive: 786-0 > 100 µM | K562 30.4 µM | HOP-62 > 100 µM | OVCAR-3 > 100 µM | SK-MEL-28 > 100 µM | HCC 2998 > 100 µM | SF-295 > 100 µM | SK-OV-3 > 100 µM | RPMI-8226 22.7 µM | SF-268 > 100 µM | ACHN > 100 µM | HT-29 > 100 µM | COLO 205 > 100 µM | NCI-H23 > 100 µM | HOP-92 > 100 µM | UACC-257 > 100 µM | UACC-62 > 100 µM

Cc1ccc(NS(=O)(=O)c2cc(C(C)(C)C)ccc2OCCOCCOCCOc2ccc(C(C)(C)C)cc2S(=O)(=O)Nc2ccc(C)cc2)cc1
inactive: 786-0 > 100 µM | K562 > 100 µM | HOP-62 > 100 µM | OVCAR-3 > 100 µM | SK-MEL-28 > 100 µM | HCC 2998 > 100 µM | SF-295 > 100 µM | SK-OV-3 > 100 µM | SF-268 > 100 µM | ACHN > 100 µM | HT-29 > 100 µM | COLO 205 > 100 µM | NCI-H23 > 100 µM | HOP-92 > 100 µM | UACC-257 > 100 µM | UACC-62 > 100 µM

CC1=NN(C(=O)Cc2ccccc2)C(=O)/C1=C\C=C\c1ccccc1
inactive: 786-0 > 100 µM | K562 > 100 µM | HOP-62 > 100 µM | OVCAR-3 > 100 µM | SK-MEL-28 > 100 µM | HCC 2998 > 100 µM | SF-295 > 100 µM | RPMI-8226 > 100 µM | SF-268 > 100 µM | ACHN > 100 µM | HT-29 > 100 µM | COLO 205 > 100 µM | SR > 100 µM | NCI-H23 > 100 µM | UACC-257 > 100 µM

C/C(=N\N(C)C)C(CN1CCCCC1)C(c1ccccc1)c1c(O)c2ccccc2oc1=O (stereo not drawn)
inactive: 786-0 > 100 µM | K562 > 100 µM | HOP-62 > 100 µM | OVCAR-3 > 100 µM | SK-MEL-28 > 100 µM | SF-295 > 100 µM | SK-OV-3 97.5 µM | RPMI-8226 > 100 µM | SF-268 > 100 µM | ACHN > 100 µM | HT-29 > 100 µM | COLO 205 > 100 µM | SR > 100 µM | NCI-H23 > 100 µM | UACC-257 > 100 µM | UACC-62 80.4 µM

S=c1nc2c(c[nH]1)C1c3ccccc3C2c2ccccc21
inactive: 786-0 > 100 µM | K562 45.6 µM | HOP-62 > 100 µM | OVCAR-3 67.5 µM | SK-MEL-28 > 100 µM | SF-295 40.1 µM | RPMI-8226 35.9 µM | SF-268 > 100 µM | ACHN 61.2 µM | HT-29 > 10 µM | COLO 205 88.7 µM | SR 34 µM | NCI-H23 > 100 µM | UACC-62 59.6 µM

CC1=C(C(=O)Nc2ccc([N+](=O)[O-])cc2)C(c2cccc([N+](=O)[O-])c2)C(C(=O)Nc2ccc([N+](=O)[O-])cc2)=C(C)N1
inactive: 786-0 48.2 µM | K562 9.93 µM | HOP-62 64.3 µM | OVCAR-3 44.5 µM | SK-MEL-28 30.7 µM | HCC 2998 25.6 µM | SF-295 30.1 µM | SK-OV-3 8.45 µM | RPMI-8226 7.78 µM | SF-268 21.6 µM | ACHN 20 µM | HT-29 21.9 µM | COLO 205 45.8 µM | NCI-H23 13.3 µM | HOP-92 5.31 µM | UACC-257 16 µM | UACC-62 5.28 µM

COc1ccc(S(=O)(=O)N/N=C/c2cc(I)cc([N+](=O)[O-])c2O)cc1OC
inactive: 786-0 45.9 µM | K562 35.2 µM | OVCAR-3 24.5 µM | HCC 2998 50.6 µM | SF-295 29 µM | SK-OV-3 32.4 µM | RPMI-8226 24 µM | ACHN 30.4 µM | HT-29 46.3 µM | COLO 205 50.9 µM | HOP-92 19.1 µM | UACC-257 39 µM | UACC-62 25.8 µM

CC(C)(C)C1CCC2(CC1)c1[nH]c3ccccc3c1C1(CCC(C(C)(C)C)CC1)c1[nH]c3ccccc3c12 (stereo not drawn)
inactive: 786-0 7.08 µM | K562 > 100 µM | HOP-62 > 100 µM | SK-MEL-28 > 100 µM | HCC 2998 > 100 µM | SF-295 > 100 µM | SK-OV-3 > 100 µM | RPMI-8226 > 100 µM | SF-268 > 100 µM | ACHN > 100 µM | HT-29 > 100 µM | COLO 205 88.9 µM | NCI-H23 > 100 µM | HOP-92 > 100 µM | UACC-257 > 100 µM | UACC-62 > 100 µM

COC(=O)C1=C(C)N(NC(N)=O)C2(N)N(NC(N)=O)C(C)=C(C(=O)OC)C12C#N (stereo not drawn)
inactive: 786-0 > 100 µM | K562 > 100 µM | HOP-62 > 100 µM | OVCAR-3 > 100 µM | SK-MEL-28 > 100 µM | HCC 2998 > 100 µM | SF-295 > 100 µM | SK-OV-3 > 100 µM | RPMI-8226 > 100 µM | SF-268 > 100 µM | ACHN > 100 µM | HT-29 > 100 µM | COLO 205 > 100 µM | NCI-H23 > 100 µM | HOP-92 > 100 µM | UACC-257 > 100 µM | UACC-62 > 100 µM

COC(=O)C1=C(c2ccc(OC)c(OC)c2)OC(c2cc(OC)c(OC)c(OC)c2)C1 (stereo not drawn)
inactive: 786-0 20 µM | K562 > 100 µM | HOP-62 19.7 µM | OVCAR-3 38.1 µM | SK-MEL-28 > 100 µM | HCC 2998 > 100 µM | SF-295 23 µM | SK-OV-3 15.3 µM | RPMI-8226 > 100 µM | SF-268 27.9 µM | ACHN 36.4 µM | HT-29 > 100 µM | NCI-H23 99.3 µM | HOP-92 23.2 µM | UACC-257 > 100 µM

C1CCN(C2OC3C(COC3N3CCCCC3)OC2OC2CCO[C@@H]2N2CCCCC2)CC1 (stereo partly drawn)
inactive: 786-0 34.7 µM | K562 28.4 µM | HOP-62 36.2 µM | OVCAR-3 24.8 µM | SK-MEL-28 57.9 µM | HCC 2998 > 100 µM | SF-295 47.5 µM | SK-OV-3 32.6 µM | RPMI-8226 17.9 µM | SF-268 53.7 µM | ACHN 25.9 µM | HT-29 89.1 µM | COLO 205 38.3 µM | NCI-H23 21.1 µM | HOP-92 11 µM | UACC-257 20.8 µM | UACC-62 13.4 µM

O=C1C2Cc3ccccc3CN2C(=O)N1CN1CCN(CN2C(=O)C3Cc4ccccc4CN3C2=O)CC1 (stereo not drawn)
inactive: 786-0 > 100 µM | K562 > 100 µM | HOP-62 > 100 µM | OVCAR-3 > 100 µM | SK-MEL-28 > 100 µM | HCC 2998 > 100 µM | SF-295 > 100 µM | SK-OV-3 > 100 µM | RPMI-8226 > 100 µM | SF-268 > 100 µM | ACHN > 100 µM | HT-29 > 100 µM | COLO 205 > 100 µM | NCI-H23 > 100 µM | HOP-92 > 100 µM | UACC-257 > 100 µM | UACC-62 > 100 µM

O=c1ccn(C2(CO)C=C(CO)C(O)C2O)c(=O)[nH]1 (stereo not drawn)
inactive: 786-0 > 25.7 µM | K562 > 25.7 µM | HOP-62 > 25.7 µM | OVCAR-3 > 25.7 µM | SK-MEL-28 > 25.7 µM | HCC 2998 > 25.7 µM | SK-OV-3 > 25.7 µM | RPMI-8226 > 25.7 µM | SF-268 > 25.7 µM | ACHN > 25.7 µM | COLO 205 > 25.7 µM | SR > 25.7 µM | UACC-257 > 25.7 µM | UACC-62 > 25.7 µM

Oc1cc(-c2c[nH]c3ccccc23)nc2cc3c(cc12)OCO3
inactive: 786-0 > 100 µM | K562 > 100 µM | HOP-62 84.3 µM | OVCAR-3 8.61 µM | SK-MEL-28 > 100 µM | HCC 2998 > 100 µM | SF-295 92.3 µM | RPMI-8226 > 100 µM | SF-268 > 100 µM | ACHN > 100 µM | HT-29 > 100 µM | COLO 205 > 100 µM | SR > 100 µM | NCI-H23 > 100 µM | UACC-257 > 100 µM | UACC-62 66.8 µM
